Measured values from patent US7271198B2, “Method of treating autoimmune diseases” (Wake Forest University, priority 2000, dated 2007).

Columns and labels:
cell-surface CD154 = assay: Flow cytometry of cell-surface CD154 and CD3-ε on SLE T cells; format: cell-based, human
Protocol: In agreement with previous work (M. Koshy, et al., J. Clin. Invest. 98, 826 (1996); A. Desai-Mehta, et al., J. Clin. Invest. 97, 2063 (1996)), we find that an increased proportion of SLE T cells express cell-surface CD154 compared to normal and disease controls. To determine if TSA-dependent down-regulation of CD154 mRNA reduces surface expression of CD154, SLE T cells were treated for 18 hr with TSA and the proportion of CD154^+ cells quantified by flow cytometry (E. Hagiwara, et al., Arthritis Rheum. 39, 379 (1996)). […] T cells were stained with saturating concentrations of monoclonal FITC-anti-CD3 and PE anti-CD154 antibodies (Caltag Labs, Burlingame, Calif.) for 30 min at 4° C., and the proportion of cells expressing CD3-ε and CD154 was quantified. In sum, these experiments reveal that TSA down-regulates both CD154 mRNA and protein expression, but not GAPDH mRNA or CD3-ε expression, in SLE T cells.

IL-10 mRNA = assay: RT-PCR of IL-10 transcript in SLE T cells; format: cell-based, human
Protocol: T cells were cultured in the absence or presence of increasing concentrations of TSA for 18 hr in 5% CO2 at 37° C. RNA was isolated, cDNAs were prepared, and RT-PCR was performed as previously detailed (D. Laxminarayana, et al., J. Clin. Invest. 92, 2207 (1993)). The primers used were: […]
The reaction mixtures were subjected to 30 cycles of denaturation (94° C., 1 min) and annealing for 1 min at 53° C. (CD154), […] (GAPDH) and 55° C. (IL-10 and IFN-γ). Extension was for 2 min at 72° C. with a final extension of 7 min at 72° C. using a DNA thermal cycler (Perkin-Elmer).
(§1) To determine whether TSA could down-regulate IL-10, a dose-response analysis was performed. […] However, when SLE T cells were cultured in the presence of TSA for 18 hr, no detectable IL-10 transcripts were identified (FIG. 2C, lanes 3, 6, 9). When IL-10 transcripts from all eight SLE subjects were quantified relative to GAPDH transcripts, TSA inhibited expression of IL-10 mRNA by 71% (FIG. 2D; P=0.029). […] IL-10 and IFN-γ protein production were quantified by ELISA (R & D Systems, Minneapolis, Minn.). […] Thus, like CD154, TSA was able to block expression of IL-10 transcript, abolishing IL-10 production by SLE T cells.

IL-10 protein = IL-10 protein production by SLE T cells (ELISA); format: cell-based, human
Protocol: as §1

[1] = system: acetylated H3 and H4 histones; assay: Western immunoblot of acetylated H3 and H4 histones in SLE PBMCs; format: cell-based, human; conditions: 1000 ng/ml TSA or 20 μM SAHA, 18 hr
Protocol: The effect of TSA and SAHA was examined to determine if HDIs induce accumulation of acetylated histones in SLE PBMCs on the level of histone acetylation in SLE PBMCs. Following culture of PBMCs in the presence of vehicle, 1000 ng/ml TSA or 20 μM SAHA for 18 hr, histones were isolated.

IFN-γ protein = IFN-γ protein secretion by MRL/lpr splenocytes; format: cell-based, mouse; conditions: Con A-stimulated splenocytes from younger MRL/lpr mice, 72 hr; p=0.004
Source text: The marked inhibition of IFN-γ transcript by these inhibitors prompted us to quantify IFN-γ protein secretion in splenocyte culture supernatants. Over 72 hr, Con A, but not LPS, stimulated splenocytes from younger MRL/lpr mice to secrete a mean (±SEM) 1,563.2±88.3 pg/ml of IFN-γ (FIG. 8D). […] Thus, inhibition of IFN-γ transcription by TSA and SAHA blocks secretion of IFN-γ protein by splenocytes.

IL-6 mRNA = IL-6 mRNA in MRL/lpr splenocytes; format: cell-based, mouse
Protocol: In determining whether TSA or SAHA down-regulate IL-6 mRNA content, splenocytes from 24-wk MRL/lpr mice were treated with increasing concentrations of TSA for 18 hr. […] TSA decreased IL-6 transcript at a concentration of 100 ng/ml and exerted maximal inhibition at 300 ng/ml. To address whether TSA and SAHA down-regulate LPS- and IFN-γ induced IL-6 transcript levels, splenocytes from younger MRL/lpr mice were treated in the absence or presence of TSA or SAHA for 18 hr before LPS and IFN-γ stimulation for 6 or 18 hr. […] Next, the effect of TSA and SAHA on IL-6 protein secretion in stimulated splenocytes was measured (FIG. 10D). When splenocytes were cultured with LPS and IFN-γ for 72 hr, there was a mean (±SEM) 34.4±7.6 pg/ml of IL-6 protein secretion.

iNOS mRNA = iNOS mRNA induction in MRL/lpr splenocytes; format: cell-based, mouse; conditions: splenocytes from 10 wk old mice, LPS and IFN-γ 24 hr
Source text: (§2) Excessive production of nitric oxide (NO) is crucial to the initiation and maintenance of glomerulonephritis in MRL/lpr mice. Pharmacologic inhibition of NO synthesis in MRL/lpr mice abrogates disease progression. In examining whether HDIs could suppress inducible nitric oxide synthetase (iNOS), splenocytes from 10 wk old mice were stimulated in the presence or absence of TSA or SAHA with LPS and IFN-γ for 24 hr. […] To determine whether HDIs could suppress nitric oxide secretion by mesangial cells, mesangial cells were stimulated with LPS ([…]) in the presence of vehicle or TSA for 24 hr. The supernatant from the cell culture was assayed for nitric oxide.

mesangial cells = assay: Nitric oxide production by MRL/lpr mesangial cells; format: cell-based, mouse; conditions: LPS 1 mg/ml, 24 hr
Source text: as §2

[2] = splenocytes from 24-wk MRL/lpr mice, 18 hr

**Q.** For `CC(/C=C/C(=O)NO)=C\[C@@H](C)C(=O)c1ccc(N(C)C)cc1` [TSA, Trichostatin A], which “new population of CD154+ cells induced by PMA+IO” value (cell-surface CD154; SLE T cells pretreated with TSA 1000 ng/ml 18 hr, PMA+IO 24 hr, P=0.005) is on record?
**A.** completely inhibited

**Q.** And the CD3-ε expression (cell-surface CD154; SLE T cells, with or without TSA and PMA+IO)?
**A.** remained stable

**Q.** What about the “reduction of cell-surface CD154+ cells” value (cell-surface CD154; non-activated SLE T cells, TSA, over 24 hr, vs untreated) of the same compound?
**A.** did not effect any significant reduction

**Q.** What about the “TSA concentration at which no detectable IL-10 mRNA was identified” value (IL-10 mRNA; SLE T cells, dose-response, RT-PCR) of the same compound?
**A.** 700 to 800 ng/mL

**Q.** And the “inhibition of expression of IL-10 mRNA” value (IL-10 mRNA; eight SLE subjects, TSA 1000 ng/ml 18 hr, relative to GAPDH, P=0.029)?
**A.** 71%

**Q.** And the “inhibition of IL-10 synthesis” value (IL-10 protein; SLE T cells, at 24 hr)?
**A.** complete inhibition

**Q.** And the “inhibition of IL-10 production” value (IL-10 protein; SLE T cells, within 6 hr)?
**A.** 90%

**Q.** What about the “TSA concentration of maximal inhibition of IL-10 protein production” value (IL-10 protein; T cells from eight SLE subjects, 18 hr) of the same compound?
**A.** 300 ng/mL

**Q.** And the “accumulation of acetylated H3 and H4 histones” value [1]?
**A.** induced the accumulation

**Q.** And the IFN-γ protein secretion (IFN-γ protein)?
**A.** did not secrete detectable levels

**Q.** What about the “TSA concentration of maximal inhibition of IL-6 transcript” value (IL-6 mRNA; [2]) of the same compound?
**A.** 300 ng/mL

**Q.** And the “TSA concentration that decreased IL-6 transcript” value (IL-6 mRNA; [2])?
**A.** 100 ng/mL

**Q.** And the “LPS- and IFN-γ induced IL-6 mRNA” value (IL-6 mRNA; splenocytes from younger MRL/lpr mice pretreated 18 hr, stimulated 6 or 18 hr)?
**A.** no detectable IL-6 mRNA

**Q.** What about the “iNOS mRNA induction” value (iNOS mRNA) of the same compound?
**A.** able to suppress iNOS mRNA induction

**Q.** And the “LPS-induced nitric oxide production” value (mesangial cells)?
**A.** able to suppress
